From ChEMBL document CHEMBL4308841, “Synthesis, in vitro antiproliferative activity, and kinase inhibitory effects of pyrazole-containing diarylureas and diarylamides” (Eur J Med Chem, 2018)

How the values were obtained:
SK-MEL-2 [1] = assay: Growth inhibition of human SK-MEL-2 cells incubated for 48 hrs by sulforhodamine B assay; format: functional, cell-based; conditions: SK-MEL-2, 48 h
OVCAR-8 = assay: Growth inhibition of human OVCAR8 cells assessed as cell growth at 1 uM incubated for 48 hrs by sulforhodamine B assay relative to control; format: functional; conditions: OVCAR-8, 48 h, read-out: Activity
RXF 393 = assay: Growth inhibition of human RXF393 cells assessed as cell growth at 1 uM incubated for 48 hrs by sulforhodamine B assay relative to control; format: functional; conditions: RXF 393, 48 h, read-out: Activity
A498 = assay: Growth inhibition of human A498 cells assessed as cell growth at 1 uM incubated for 48 hrs by sulforhodamine B assay relative to control; format: functional; conditions: A498, 48 h, read-out: Activity
SF-268 [2] = assay: Growth inhibition of human SF268 cells incubated for 48 hrs by sulforhodamine B assay; format: functional, cell-based; conditions: SF-268, 48 h
SF-268 [3] = assay: Growth inhibition of human SF268 cells assessed as cell growth at 1 uM incubated for 48 hrs by sulforhodamine B assay relative to control; format: functional; conditions: SF-268, 48 h, read-out: Activity
COLO 205 = assay: Growth inhibition of human COLO205 cells assessed as cell growth at 0.01 uM incubated for 48 hrs by sulforhodamine B assay relative to control; format: functional; conditions: COLO 205, 48 h, read-out: Activity
SNB-19 = assay: Growth inhibition of human SNB19 cells assessed as cell growth at 100 uM incubated for 48 hrs by sulforhodamine B assay relative to control; format: functional; conditions: SNB-19, 48 h, read-out: Activity
NCI-H226 = assay: Growth inhibition of human NCI-H226 cells incubated for 48 hrs by sulforhodamine B assay; format: functional, cell-based; conditions: NCI-H226, 48 h
NCI-H23 = assay: Growth inhibition of human NCI-H23 cells assessed as cell growth at 0.1 uM incubated for 48 hrs by sulforhodamine B assay relative to control; format: functional; conditions: NCI-H23, 48 h, read-out: Activity
MOLT-4 = assay: Growth inhibition of human MOLT4 cells incubated for 48 hrs by sulforhodamine B assay; format: functional, cell-based; conditions: MOLT-4, 48 h
MDA-MB-435 = assay: Growth inhibition of human MDA-MB-435 cells incubated for 48 hrs by sulforhodamine B assay; format: functional, cell-based; conditions: MDA-MB-435, 48 h
RPMI-8226 = assay: Growth inhibition of human RPMI8226 cells assessed as cell growth at 1 uM incubated for 48 hrs by sulforhodamine B assay relative to control; format: functional; conditions: RPMI-8226, 48 h, read-out: Activity
SK-MEL-2 [4] = assay: Growth inhibition of human SK-MEL-2 cells assessed as cell growth at 10 uM incubated for 48 hrs by sulforhodamine B assay relative to control; format: functional; conditions: SK-MEL-2, 48 h, read-out: Activity
HT-29 = assay: Growth inhibition of human HT-29 cells incubated for 48 hrs by sulforhodamine B assay; format: functional, cell-based; conditions: HT-29, 48 h
A549 [5] = assay: Growth inhibition of human A549/ATCC cells assessed as cell growth at 100 uM incubated for 48 hrs by sulforhodamine B assay relative to control; format: functional; conditions: A549, 48 h, read-out: Activity
UACC-257 = assay: Growth inhibition of human UACC257 cells assessed as cell growth at 1 uM incubated for 48 hrs by sulforhodamine B assay relative to control; format: functional; conditions: UACC-257, 48 h, read-out: Activity
Hs-578T [6] = assay: Growth inhibition of human Hs578T cells assessed as cell growth at 100 uM incubated for 48 hrs by sulforhodamine B assay relative to control; format: functional; conditions: read-out: Activity
HL-60(TB) = assay: Growth inhibition of human HL-60(TB) cells incubated for 48 hrs by sulforhodamine B assay; format: functional, cell-based; conditions: HL-60, 48 h
Hs-578T [7] = assay: Growth inhibition of human Hs578T cells incubated for 48 hrs by sulforhodamine B assay; format: functional, cell-based
Hs-578T [8] = assay: Growth inhibition of human Hs578T cells assessed as cell growth at 0.01 uM incubated for 48 hrs by sulforhodamine B assay relative to control; format: functional; conditions: read-out: Activity
SNB-75 = assay: Growth inhibition of human SNB75 cells assessed as cell growth at 0.01 uM incubated for 48 hrs by sulforhodamine B assay relative to control; format: functional; conditions: SNB-75, 48 h, read-out: Activity
K562 = assay: Growth inhibition of human K562 cells assessed as cell growth at 0.1 uM incubated for 48 hrs by sulforhodamine B assay relative to control; format: functional; conditions: K562, 48 h, read-out: Activity
SK-OV-3 = assay: Growth inhibition of human SKOV3 cells assessed as cell growth at 1 uM incubated for 48 hrs by sulforhodamine B assay relative to control; format: functional; conditions: SK-OV-3, 48 h, read-out: Activity
HOP-62 = assay: Growth inhibition of human HOP62 cells assessed as cell growth at 1 uM incubated for 48 hrs by sulforhodamine B assay relative to control; format: functional; conditions: HOP-62, 48 h, read-out: Activity
U-251 = assay: Growth inhibition of human U251 cells assessed as cell growth at 0.01 uM incubated for 48 hrs by sulforhodamine B assay relative to control; format: functional; conditions: U-251, 48 h, read-out: Activity
CCRF-CEM = assay: Growth inhibition of human CCRF-CEM cells assessed as cell growth at 1 uM incubated for 48 hrs by sulforhodamine B assay relative to control; format: functional; conditions: read-out: Activity
A549 [9] = assay: Growth inhibition of human A549/ATCC cells assessed as cell growth at 0.1 uM incubated for 48 hrs by sulforhodamine B assay relative to control; format: functional; conditions: A549, 48 h, read-out: Activity
[10] = read-out: LC50 (the source's name)
[11] = read-out: pLC50 (the source's name) (converted)

Compound: COc1cc(Cl)cc(-c2nn(-c3cccc(NC(=O)Nc4cccc(C(F)(F)F)c4)c3)cc2-c2ccncc2)c1
- GI50 (SK-MEL-2 [1]; read-out: GI50): 1.29 µM
- CC50 (SK-MEL-2 [1]; [10]): 73.4 µM
- TGI (SK-MEL-2 [1]; read-out: TGI): 30.5 µM
- GI50 (SK-MEL-2 [1]; read-out: pGI50 (converted)): 1.29 µM
- CC50 (SK-MEL-2 [1]; [11]): 7.41 µM
- TGI (SK-MEL-2 [1]; read-out: pTGI (converted)): 3.09 µM
- growth at 1 µM (OVCAR-8): 54%
- growth at 1 µM (RXF 393): 68%
- growth at 1 µM (A498): 75%
- GI50 (SF-268 [2]; read-out: GI50): 2.56 µM
- CC50 (SF-268 [2]; [10]): > 100 µM
- TGI (SF-268 [2]; read-out: TGI): 17.1 µM
- GI50 (SF-268 [2]; read-out: pGI50 (converted)): 2.57 µM
- CC50 (SF-268 [2]; [11]): > 100 µM
- TGI (SF-268 [2]; read-out: pTGI (converted)): 17 µM
- growth at 1 µM (SF-268 [3]): 79%
- growth at 0.01 µM (COLO 205): 100%
- growth at 100 µM (SNB-19): -13%
- GI50 (NCI-H226; read-out: GI50): 2.26 µM
- LC50 (NCI-H226; read-out: LC50): > 100 µM
- TGI (NCI-H226; read-out: TGI): 11.5 µM
- GI50 (NCI-H226; read-out: pGI50 (converted)): 2.24 µM
- LC50 (NCI-H226; read-out: pLC50 (converted)): > 100 µM
- TGI (NCI-H226; read-out: pTGI (converted)): 28.8 µM
- growth at 0.1 µM (NCI-H23): 90%
- GI50 (MOLT-4; read-out: GI50): 1.13 µM
- CC50 (MOLT-4; [10]): > 100 µM
- TGI (MOLT-4; read-out: TGI): 43.5 µM
- GI50 (MOLT-4; read-out: pGI50 (converted)): 1.12 µM
- CC50 (MOLT-4; [11]): > 100 µM
- TGI (MOLT-4; read-out: pTGI (converted)): 4.37 µM
- GI50 (MDA-MB-435; read-out: GI50): 1.74 µM
- LC50 (MDA-MB-435; read-out: LC50): 83.7 µM
- TGI (MDA-MB-435; read-out: TGI): 35.2 µM
- GI50 (MDA-MB-435; read-out: pGI50 (converted)): 1.74 µM
- LC50 (MDA-MB-435; read-out: pLC50 (converted)): 8.32 µM
- TGI (MDA-MB-435; read-out: pTGI (converted)): 3.8 µM
- growth at 1 µM (RPMI-8226): 22%
- growth at 10 µM (SK-MEL-2 [4]): -36.7%
- GI50 (HT-29; read-out: GI50): 1.51 µM
- CC50 (HT-29; [10]): 25.1 µM
- TGI (HT-29; read-out: TGI): 52.4 µM
- GI50 (HT-29; read-out: pGI50 (converted)): 1.51 µM
- CC50 (HT-29; [11]): 26.3 µM
- TGI (HT-29; read-out: pTGI (converted)): 6.31 µM
- growth at 100 µM (A549 [5]): -24%
- growth at 1 µM (UACC-257): 78%
- growth at 100 µM (Hs-578T [6]): 21%
- GI50 (HL-60(TB); read-out: GI50): 1.91 µM
- LC50 (HL-60(TB); read-out: LC50): > 100 µM
- TGI (HL-60(TB); read-out: TGI): 55.1 µM
- GI50 (HL-60(TB); read-out: pGI50 (converted)): 1.91 µM
- LC50 (HL-60(TB); read-out: pLC50 (converted)): > 100 µM
- TGI (HL-60(TB); read-out: pTGI (converted)): 5.5 µM
- GI50 (Hs-578T [7]; read-out: GI50): 4.05 µM
- CC50 (Hs-578T [7]; [10]): > 100 µM
- TGI (Hs-578T [7]; read-out: TGI): > 100 µM
- GI50 (Hs-578T [7]; read-out: pGI50 (converted)): 4.07 µM
- CC50 (Hs-578T [7]; [11]): > 100 µM
- TGI (Hs-578T [7]; read-out: pTGI (converted)): > 100 µM
- growth at 0.01 µM (Hs-578T [8]): 99%
- growth at 0.01 µM (SNB-75): 83%
- growth at 0.1 µM (K562): 94%
- growth at 1 µM (SK-OV-3): 103%
- growth at 1 µM (HOP-62): 85%
- growth at 0.01 µM (U-251): 95%
- growth at 1 µM (CCRF-CEM): 56%
- growth at 0.1 µM (A549 [9]): 96%
